Test system: Mouse B16 melanoma cells
Assay: Melanin production inhibition test
Type: cell-based
Settings: Mus musculus, 72 h, Table 1, 3 days, minimum non-cytotoxic concentration at which melanin amount was 80% or less, read-out: Inhibitory effect on melanin production
Method: A test for melanin production inhibition by the compounds of the formula (1) was conducted. The test method is as follows.
Melanin Production Inhibition Test
(1) Inoculation of Cells and Addition of Test Substances
Mouse B16 melanoma cells were inoculated in a six well plate at 100,000 cells/well. The next day, test substance solutions (solvent: DMSO) were added.
(2) Cell Proliferation Test
Three days after the addition of the test substance solution, the medium was removed by aspiration. Then 1 ml of EMEM medium containing 10% Alamar Blue solution was added, and a reaction was allowed to proceed at 37° C. After 30 minutes, 100 μL of the reaction mixture was transferred to a 96 well plate and fluorescence was measured at an excitation wavelength of 544 nm and a measurement wavelength of 590 nm. Using the value thus measured as a relative value of cell count, a ratio of the cell count (% cell count) of the test substance-added group to the test substance-absent group (group in which only the solvent was added) was calculated. The higher the % cell count, the lower the cytotoxicity. It was determined that a compound having the % cell count of 80% or more was non-cytotoxic, and that a compound having the % cell count of less than 80% was cytotoxic.
(3) Quantification of Melanin
The cells after the cell proliferation test were washed with PBS three times, and then lysed by addition of 200 μL of 1M NaOH to measure an absorbance at 475 nm. Using the value thus measured as a relative value of the melanin amount, a ratio of the melanin amount (%) of the test substance-added group to the test substance-absent group (group in which only the solvent was added) was calculated. The lower the ratio of the melanin amount, the higher the melanin production-inhibitory effect. […] The inhibitory effect on melanin production was evaluated according to the following criteria.
⊚: the minimum concentration for inhibition of melanin production was 1 ppm or less.
◯: the minimum concentration for inhibition of melanin production was more than 1 ppm and 10 ppm or less.

Structure (SMILES) | minimal effective concentration
Cc1ccccc1Nc1nc(-c2ccncc2)cs1 [Compound 1] | ≤ 1 µg/mL
Cc1ccccc1Nc1nc(-c2ccccn2)cs1 [Compound 2, 4-(pyridin-2-yl)-N-o-toluylthiazol-2-amine] | ≤ 1 µg/mL
CCc1ccccc1Nc1nc(-c2ccccn2)cs1 [Compound 3] | ≤ 1 µg/mL
c1ccc(Nc2nc(-c3ccccn3)cs2)cc1 [Compound 4] | ≤ 1 µg/mL
Cc1ccc(Nc2nc(C(C)(C)C)cs2)c(C)c1 [Compound 5] | ≤ 1 µg/mL
COc1ccc(-c2nc(Nc3c(C)cccc3C)sc2C)cc1 [Compound 7] | ≤ 1 µg/mL
CCc1ccccc1Nc1nc(-c2ccc(O)c(O)c2)cs1 [Compound 9] | ≤ 1 µg/mL
CCc1ccccc1Nc1nc(-c2ccc(O)cc2O)cs1 [Compound 10] | ≤ 1 µg/mL

Same assay, conditions: Mus musculus, 72 h, Table 3, 3 days, minimum non-cytotoxic concentration at which melanin amount was 80% or less, read-out: Inhibitory effect on melanin production

Structure (SMILES) | minimal effective concentration
C=CCN(C1=NC(C)(C)C(=C)S1)c1ccc(C)cc1C [Compound 31] | ≤ 1 µg/mL
C=C1SC(Nc2ccc(C)cc2C)=NC1(C)C [Compound 32] | ≤ 1 µg/mL

Same assay, conditions: Mus musculus, 72 h, Table 4, 3 days, minimum non-cytotoxic concentration at which melanin amount was 80% or less, read-out: Inhibitory effect on melanin production

Structure (SMILES) | minimal effective concentration
O=C(Nc1nccs1)C1(c2ccccc2)CCCC1 [Compound 36] | ≤ 1 µg/mL

Same assay, conditions: Table 1, 3 days, minimum non-cytotoxic concentration at which melanin amount was 80% or less

Structure (SMILES) | Inhibitory effect on melanin production
CC(=O)c1sc(Nc2ccccc2C)nc1C [Compound 6] | ∘
Cc1cccc(C)c1Nc1nc(-c2ccccc2)cs1 [Compound 8] | ⊚ (the minimum concentration for inhibition of melanin production was 1 ppm or less.)

Same assay, conditions: Table 3, 3 days, minimum non-cytotoxic concentration at which melanin amount was 80% or less

Structure (SMILES) | Inhibitory effect on melanin production
CCC1CSC(Nc2ccccc2)=N1 (centres unmarked) [Compound 19] | ⊚ (the minimum concentration for inhibition of melanin production was 1 ppm or less.)
c1ccc(NC2=NCCS2)cc1 [Compound 20] | ∘
CC1CN=C(Nc2ccccc2)S1 (centres unmarked) [Compound 21] | ⊚ (the minimum concentration for inhibition of melanin production was 1 ppm or less.)
Cc1ccccc1NC1=NCCS1 [Compound 22] | ⊚ (the minimum concentration for inhibition of melanin production was 1 ppm or less.)
COc1ccccc1NC1=NCCS1 [Compound 23] | ⊚ (the minimum concentration for inhibition of melanin production was 1 ppm or less.)
COc1ccc(NC2=NC(C)(C)CS2)cc1 [Compound 24] | ∘
COc1cccc(NC2=NC(C)(C)CS2)c1 [Compound 25] | ∘
COc1ccccc1NC1=NC(C)(C)CS1 [Compound 26] | ∘
Cc1ccc(NC2=NC(C)CS2)c(C)c1 (centres unmarked) [Compound 27] | ∘
Cc1ccccc1NC1=NCC(C)(C)S1 [Compound 28] | ⊚ (the minimum concentration for inhibition of melanin production was 1 ppm or less.)
OCC1(CO)CSC(Nc2ccccc2)=N1 [Compound 29] | ∘
Cc1cc(C)c(NC2=NC(CO)(CO)CS2)c(C)c1 [Compound 30] | ∘

Same assay, conditions: Table 4, 3 days, minimum non-cytotoxic concentration at which melanin amount was 80% or less

Structure (SMILES) | Inhibitory effect on melanin production
Cc1nc(NC(C)(C)C)sc1-c1ccccc1 [Compound 33] | ⊚ (the minimum concentration for inhibition of melanin production was 1 ppm or less.)
Cc1ccc(C(=O)Nc2nc(C)cs2)cc1 [Compound 34] | ∘
O=C(Nc1nc2c(s1)CCCC2)c1ccccc1 [Compound 35] | ⊚ (the minimum concentration for inhibition of melanin production was 1 ppm or less.)
Cc1ccc2oc(Nc3nc(C)cc(O)n3)nc2c1 [Compound 37] | ∘

Same assay, conditions: Table 5, 3 days, minimum non-cytotoxic concentration at which melanin amount was 80% or less

Structure (SMILES) | Inhibitory effect on melanin production
CC1(C)CN=C(Nc2cccnc2)S1 [Compound 38] | ∘
CC1(C)CN=C(NC2CCCCC2)S1 [Compound 39] | ∘
CC1(C)CN=C(NCc2ccccc2)S1 [Compound 40] | ∘

Source: US20100324096A1, “Whitening Agent And Skin External Preparation” (SHISEIDO COMPANY LTD., priority 2008, published 2010)
